Experiment: Toxicology in rats, oral, histopathology
Assay type: in vivo
Conditions: rat, in vivo, po
Text: After 32 days, the rats were sacrificed and their organs were examined under a microscope.

Compound: O.O.O.O.[Na+].[O-]B1OO1 [sodium perborate tetrahydrate]
- LIVER Within normal limits, % (1 mg/kg): 100%
- LIVER Within normal limits, No Exam (1 mg/kg): 10/10
- LUNG Lymphocytic infiltration, % (1 mg/kg): 0%
- LUNG Lymphocytic infiltration, No Exam (1 mg/kg): 0/10
- LUNG Notable or abnormal, % (1 mg/kg): 0%
- LUNG Notable or abnormal, No Exam (1 mg/kg): 0/10
- LUNG Pulmonary edema, % (1 mg/kg): 0%
- LUNG Pulmonary edema, No Exam (1 mg/kg): 0/10
- LUNG Within normal limits, % (1 mg/kg): 100%
- LUNG Within normal limits, No Exam (1 mg/kg): 10/10
- PANCREAS Notable or abnormal, % (1 mg/kg): 0%
- PANCREAS Notable or abnormal, No Exam (1 mg/kg): 0/10
- PANCREAS Within normal limits, % (1 mg/kg): 100%
- PANCREAS Within normal limits, No Exam (1 mg/kg): 10/10
- SPLEEN Notable or abnormal, % (1 mg/kg): 0%
- SPLEEN Notable or abnormal, No Exam (1 mg/kg): 0/10
- SPLEEN Within normal limits, % (1 mg/kg): 100%
- SPLEEN Within normal limits, No Exam (1 mg/kg): 10/10
- STOMACH Notable or abnormal, % (1 mg/kg): 0%
- STOMACH Notable or abnormal, No Exam (1 mg/kg): 0/10
- STOMACH Within normal limits, % (1 mg/kg): 100%
- STOMACH Within normal limits, No Exam (1 mg/kg): 10/10
- HEART Notable or abnormal, % (2 mg/kg): 0%
- HEART Notable or abnormal, No Exam (2 mg/kg): 0/10
- HEART Within normal limits, % (2 mg/kg): 100%
- HEART Within normal limits, No Exam (2 mg/kg): 10/10
- INTESTINE, Large Notable or abnormal, % (2 mg/kg): 0%
- INTESTINE, Large Notable or abnormal, No Exam (2 mg/kg): 0/10
- INTESTINE, Large Within normal limits, % (2 mg/kg): 100%
- INTESTINE, Large Within normal limits, No Exam (2 mg/kg): 10/10
- INTESTINE, Small Notable or abnormal, % (2 mg/kg): 0%
- INTESTINE, Small Notable or abnormal, No Exam (2 mg/kg): 0/10
- INTESTINE, Small Within normal limits, % (2 mg/kg): 100%
- INTESTINE, Small Within normal limits, No Exam (2 mg/kg): 10/10
- KIDNEY Edema, % (2 mg/kg): 0%
- KIDNEY Edema, No Exam (2 mg/kg): 0/10
- KIDNEY Notable or abnormal, % (2 mg/kg): 0%
- KIDNEY Notable or abnormal, No Exam (2 mg/kg): 0/10
- KIDNEY Within normal limits, % (2 mg/kg): 100%
- KIDNEY Within normal limits, No Exam (2 mg/kg): 10/10
- LIVER Fattening, % (2 mg/kg): 0%
- LIVER Fattening, No Exam (2 mg/kg): 0/10
- LIVER Infiltration, % (2 mg/kg): 0%
- LIVER Infiltration, No Exam (2 mg/kg): 0/10
- LIVER Notable or abnormal, % (2 mg/kg): 0%
- LIVER Notable or abnormal, No Exam (2 mg/kg): 0/10
- LIVER Within normal limits, % (2 mg/kg): 100%
- LIVER Within normal limits, No Exam (2 mg/kg): 10/10
- LUNG Lymphocytic infiltration, % (2 mg/kg): 0%
- LUNG Lymphocytic infiltration, No Exam (2 mg/kg): 0/10
- LUNG Notable or abnormal, % (2 mg/kg): 0%
- LUNG Notable or abnormal, No Exam (2 mg/kg): 0/10
- LUNG Pulmonary edema, % (2 mg/kg): 0%
- LUNG Pulmonary edema, No Exam (2 mg/kg): 0/10
- LUNG Within normal limits, % (2 mg/kg): 100%
- LUNG Within normal limits, No Exam (2 mg/kg): 10/10
- PANCREAS Notable or abnormal, % (2 mg/kg): 0%
- PANCREAS Notable or abnormal, No Exam (2 mg/kg): 0/10
- PANCREAS Within normal limits, % (2 mg/kg): 100%
- PANCREAS Within normal limits, No Exam (2 mg/kg): 10/10
- SPLEEN Notable or abnormal, % (2 mg/kg): 0%
- SPLEEN Notable or abnormal, No Exam (2 mg/kg): 0/10
- SPLEEN Within normal limits, % (2 mg/kg): 100%
- SPLEEN Within normal limits, No Exam (2 mg/kg): 10/10
- STOMACH Notable or abnormal, % (2 mg/kg): 0%
- STOMACH Notable or abnormal, No Exam (2 mg/kg): 0/10
- STOMACH Within normal limits, % (2 mg/kg): 100%
- STOMACH Within normal limits, No Exam (2 mg/kg): 10/10
- HEART Notable or abnormal, % (4 mg/kg): 0%
- HEART Notable or abnormal, No Exam (4 mg/kg): 0/10
- HEART Within normal limits, % (4 mg/kg): 100%
- HEART Within normal limits, No Exam (4 mg/kg): 10/10
- INTESTINE, Large Notable or abnormal, % (4 mg/kg): 0%
- INTESTINE, Large Notable or abnormal, No Exam (4 mg/kg): 0/10
- INTESTINE, Large Within normal limits, % (4 mg/kg): 100%
- INTESTINE, Large Within normal limits, No Exam (4 mg/kg): 10/10
- INTESTINE, Small Notable or abnormal, % (4 mg/kg): 0%
- INTESTINE, Small Notable or abnormal, No Exam (4 mg/kg): 0/10
- INTESTINE, Small Within normal limits, % (4 mg/kg): 100%
- INTESTINE, Small Within normal limits, No Exam (4 mg/kg): 10/10
- KIDNEY Edema, % (4 mg/kg): 0%
